For series [1] the following is noted: cited from earlier work.
For another series, the system named is obese Zucker rat. To be noted: treated rats; cited from earlier work.
For series [2] the following is noted: carnitine treatment; cited from earlier work.
The subject of series [3] is obese Zucker rats. Description: Intramyocellular lipid content (oil red O staining of adductor magnus muscle) after chronic levocarnitine. It is filed as in vivo, rat. To be noted: obese Zucker rats with metabolic syndrome; chronic administration, 100 mg/kg bodyweight daily in drinking water or food.
Experimental: Forty-five male obese Zucker rats are obtained at 5 weeks of age (Charles is River) and randomized into three groups of 15 each. Namely, the forty-five male obese Zucker rats are randomized into Control Group A, Control Group B, and L-Carn Group, which each consists of 15 rats. Control Group A and Control Group B receive normal rat chow throughout the study. The 15 Zucker rats in L-Carn Group receive 100 mg/kg bodyweight (BWt) of levocarnitine, daily, in their drinking water or mixed with their food. […] After determining insulin sensitivity, the adductor magnus muscle of the left hind leg is isolated and the anterior and posterior ends tied with 3-O silk and cut outside the ties. The muscle is placed across a wooden stick, slightly wider than the muscle section is long, and tied in place to preserve its normal amount of stretch, then immediately immersed in isopentane cooled in liquid nitrogen. […] The lipid content of the sections is determined by using histochemical staining. One such suitable histochemical staining process includes using lipid-soluble dye to dye respective sections of tissue which are then observed and/or other wise analyzed. […] Ones of the three muscle fiber types are examined and lipid concentrations are determined respectively, pursuant to techniques and methods well known to those skilled in the art. […]
The test system of another series is canine cardiac tissue. The conditions noted are these: cited from earlier work.
The next series concerns Type II Diabetics. To be noted: acute administration; cited from earlier work.
Series [4] relates to obese Zucker rats. Nature of the series: Renal histology / kidney injury. The conditions noted are these: chronic administration, secondary benefit. Format: in vivo, rat. As to the method: Forty-five male obese Zucker rats are obtained at 5 weeks of age (Charles is River) and randomized into three groups of 15 each. Namely, the forty-five male obese Zucker rats are randomized into Control Group A, Control Group B, and L-Carn Group, which each consists of 15 rats. Control Group A and Control Group B receive normal rat chow throughout the study. The 15 Zucker rats in L-Carn Group receive 100 mg/kg bodyweight (BWt) of levocarnitine, daily, in their drinking water or mixed with their food. At 6 weeks of age, all groups are placed in metabolic cages for 24-hours to determine baseline protein and creatinine excretion rates, whereby proteinuria can be determined. Systolic blood pressure measurements are obtained by tailcuff plethysmography and a sample of blood is obtained from the tail for determination of fasting plasma creatinine, insulin, blood glucose, triglycerides, and cholesterol. These measurements are subsequently repeated at 12, 18, and 24 weeks of age. […]
As one example, the PAS stained kidney sections are e.g. observed, examined, studied, and/or analyzed with light microscopy or other suitable means, while considering suitable observational criteria which includes, but is not limited to, a suitable glomerular sclerosis index, a suitable tubulointerstitial index, a suitable mesangial matrix index, and/or others. […]

In series [5] the test system is obese Zucker rats. Description: Insulin sensitivity by euglycemic-hyperinsulinemic clamp technique. To be noted: chronic administration. Format: in vivo, rat.
Experimental: Forty-five male obese Zucker rats are obtained at 5 weeks of age (Charles is River) and randomized into three groups of 15 each. Namely, the forty-five male obese Zucker rats are randomized into Control Group A, Control Group B, and L-Carn Group, which each consists of 15 rats. Control Group A and Control Group B receive normal rat chow throughout the study. The 15 Zucker rats in L-Carn Group receive 100 mg/kg bodyweight (BWt) of levocarnitine, daily, in their drinking water or mixed with their food. At 6 weeks of age, all groups are placed in metabolic cages for 24-hours to determine baseline protein and creatinine excretion rates, whereby proteinuria can be determined. […] At 6 weeks of age, the Zucker rats of Control Group A are anesthetized with sodium pentobarbital (50-60 mg/kg BWt intraperitoneally) and insulin sensitivity is determined using the euglycemic-hyperinsulinemic clamp technique, explained elsewhere herein. […] Blood glucose is determined every 15 minutes over a 120 minute baseline period. […] Blood glucose is analyzed every 5 minutes from a catheter in the femoral artery using a glucometer (Freestyle®, test volume required=0.3 μL) and the rate of D-glucose infused is adjusted to maintain plasma glucose at ˜5 mol/L. Whole body insulin sensitivity is calculated at the mean glucose infusion rate during the last 60 minutes of the euglycemic-hyperinsulinemic clamp study. […]
The subject of a further series is whole animal models. To be noted: cited from earlier work.

As for `CN(CCOc1ccc(CC2SC(=O)NC2=O)cc1)c1ccccn1` (centres unmarked) [roziglitazone], the side effects entry in series [1] (in vivo) is “weight gain”. For the same molecule, in the series on obese Zucker rat, the “concentration of IMCL” value is given as “reduce the concentration of IMCL” and the insulin sensitivity result is “marked improvement in insulin sensitivity”.
Consider `C[N+](C)(C)CC(O)CC(=O)[O-]` (centres unmarked) [levocarnitine, 3-hydroxy-4-N trimethylammonium butyrate], for which the “urinary excretion of long chain carnitine esters” value in series [2] is listed as “increased urinary excretion of long chain carnitine esters”. Moreover, the intramyocellular lipid concentration entry in the series with obese Zucker rats [3] was “decreases the intramyocellular lipid concentration”. Besides, the “elution of long chain acyl CoA esters” value in the series on canine cardiac tissue was “ability of levocarnitine to elute long chain acyl CoA esters has been demonstrated”. Further, in the series on Type II Diabetics, the “glucose storage and oxidation” value was “both glucose storage and oxidation”; the “whole body glucose uptake” value was “significantly increased whole body glucose uptake”. In addition, the kidney injury result in the series on obese Zucker rats [4] is “reduction of kidney injury”. Moreover, the insulin sensitivity entry in the series on obese Zucker rats [5] (obese Zucker rats with metabolic syndrome, 100 mg/kg bodyweight daily) was “improves insulin sensitivity”. Also, the systemic insulin concentrations result with obese Zucker rats [5] (obese Zucker rats) was “lower systemic insulin concentrations”.
Take `CCOC(=O)[C@@]1(CCCCCCOc2ccc(Cl)cc2)CO1` [Etomoxir]: in the series on whole animal models, the intramyocellular lipid entry is reported as “rise in intramyocellular lipid” and the “whole body insulin resistance” value is given as “increasing degrees of whole body insulin resistance”.
For the molecule `Cc1c(C)c2c(c(C)c1O)CCC(C)(COc1ccc(CC3SC(=O)NC3=O)cc1)O2` (centres unmarked) [troglitazone], in series [1] (removed from the market), the hepatotoxicity result was “excessive hepatotoxicity”.

(Values after patent publication US20050232911A1, “Prevention and treatment of metabolic abnormalities associated with excess intramyocellular lipid” (priority 2004, published 2005).)
